What was measured:
[1] = parameters: method as in Yang et al., 2021; settings: SD rats, oral administration at an equimolar dose, previous study ref Yang et al., 2021; cited from earlier work
VMAT2 [2] = tested on: VMAT2; parameters: method as in Yang et al., 2021; settings: previous study ref Yang et al., 2021; read-out: affinity for VMAT2 IC50; cited from earlier work
CYP2D6 = tested on: T1, CYP2D6; experiment: P450 phenotyping, chemical inhibitors in HLMs, CYP2D6; assay type: in vitro ADME, human; settings: CYP2D6 probe substrate, 5 µM, specific inhibitor
T1 construct: tissue Corning Co., Ltd (Shanghai, China); host or cells: human liver microsomes
Procedure: (§1) According to the result of metabolite identification, three metabolites were selected as the targets for metabolic phenotyping. Seven CYP isozymes (CYP1A2, CYP2B6, CYP2C8, CYP2C9, CYP2C19, CYP2D6, and CYP3A4) were investigated using two kinds of methods: chemical inhibitors in human liver microsomes (HLMs) method (Experiment 1) and rhCYP isozymes method (Experiment 2).
(§2) Experiment 1: HLMs were thawed on ice and diluted in100 mM sodium phosphate buffer (pH 7.4) containing 3 mM magnesium chloride. […] After 10 min of preincubation at 37°C, the reactions were initiated by adding 20 µL of NADPH (10 mM) and then incubated at 37 °C in a shaking water bath for 30 min. The samples were prepared in triplicates. The reactions were terminated by adding 600 µL of ice-cold acetonitrile and stored at −20°C until analysis. Control samples without NADPH and 0-time point samples were included. As positive controls, the probe substrates of each P450 isozyme under the same conditions were tested, and specific inhibitors was added. Next, the samples were centrifuged at 13,000 rpm for 10 min, the supernatants were determined by LC–MS/MS.

rhCYP CYP2D6 = tested on: T2, rhCYP CYP2D6; experiment: P450 phenotyping, rhCYP isozymes, CYP2D6; assay type: in vitro ADME, human; settings: rhCYP2D6 probe substrate, 1 µM
T2 construct: purchased Corning Co., Ltd (Shanghai, China)
Description: as §1
(§3) Experiment 2: Each rhCYP isozyme was thawed and diluted as above method. As positive controls, the probe substrates of each P450 isozyme were tested under the same conditions. […] Vx ([…]) is the production rate of metabolites for each rhCYP isozyme.

VMAT2 [3] = tested on: VMAT2; parameters: method as in Skor et al., 2017; Stahl, 2018; settings: Figure 1A ref Skor et al., 2017; Stahl, 2018; cited from earlier work
[4] = parameters: method as in Skor et al., 2017; Stahl, 2018; settings: Figure 1A ref Skor et al., 2017, Stahl, 2018, cited from earlier work; for Plasma Leval (DTBZ): share of HTBZ isomers after deutetrabenazine; for Plasma Leval (TBZ): share of HTBZ isomers after tetrabenazine
[5] = Metabolite identification in liver microsomes from humans, dogs and rats (stated across species); assay type: in vitro ADME, human, dog, rat; settings: range or bound across the three species
Procedure: (§4) Human, rat and dog liver microsomes were carefully thawed on ice prior to the experiment and diluted to 1 mg/ml in100 mM sodium phosphate buffer (pH 7.4) containing 10 mM magnesium chloride. […] After 3 min of preincubation at 37°C, the reactions were initiated by adding 20 µL of NADPH (20 mM) and then incubated at 37°C in a shaking water bath for 60 min. All samples were prepared in duplicates. The reactions were terminated by adding 600 µl of ice-cold acetonitrile and stored at −20°C until analysis. Control samples without NADPH and 0-time point samples were included. As a positive control, testosterone (10 µM) which was metabolized to produce the hydroxylation metabolite was used as a substrate to confirm the activity of the incubation system. Next, the samples were centrifuged at 13,000 rpm for 10 min, the supernatant was separated and evaporated to dryness under a nitrogen stream. The residue was resuspended in 100 μl of acetonitrile, after centrifugation, the supernatants were analyzed by UPLC–UV-HRMS.
(§5) The analysis was performed on Acquity UPLC system coupled with a diode array detector (Waters Corporation, United States) and Q Exactive™ Orbitrap HRMS (Thermo Electron Corporation, United States). […]
(§6) HRMS were operated at positive ion mode using a heating electrospray ionization source (HESI). […] The metabolites were detected by full MS/dd-MS^2 analysis from m/z 100 to m/z 1,000. […]

[6] = Metabolite identification in dog liver microsomes; assay type: in vitro ADME
Procedure: as §4, §5, §6

[7] = Metabolite identification in human liver microsomes; assay type: in vitro ADME
Procedure: as §4, §5, §6

[8] = Metabolite identification in rat liver microsomes; assay type: in vitro ADME; settings: NADPH, 60 min
Procedure: as §4, §5, §6

[9] = Metabolite identification in dog plasma after oral dose; assay type: in vivo; settings: pooled dog plasma after single oral dose of (+)-13e at 3 μmol/kg
Procedure: (§7) Male beagle dogs were randomly divided into four groups. […] The dogs were fasted for 12 h before treatment and 4 h after treatment, but they were granted free access to water. Blood was collected from the vein before administration and 0.083 (only for injection groups), 0.25, 0.5, 1, 2, 3, 4, 6, 8, 12 and 24 h, and placed it in heparinized tubes, and centrifuged it at 8,000 rpm for 10 min at 4°C to separate the plasma, which we stored at −20 °C until analysis. The plasma samples were pretreated by protein precipitation with acetonitrile and quantitated by the validated LC-MS/MS (Shimadzu Exion-Triple Quad 4500) method.
Then, four volumes of acetonitrile (containing 0.1% formic acid) were added into the pooled plasma samples to precipitate the proteins. After vortex-mixing and centrifugation, the supernatants were dried under a nitrogen stream. Then, the residues were resuspended in 100 μl of acetonitrile/water (1:1, v/v) with 0.1% formic acid. After centrifugation, the supernatants were analyzed by UPLC–UV-HRMS for metabolite identification.
The analysis was performed on Acquity UPLC system coupled with a diode array detector (Waters Corporation, United States) and Q Exactive™ Orbitrap HRMS (Thermo Electron Corporation, United States). […] The mobile phase was composed water containing 0.1% formic acid (A) and acetonitrile containing 0.1% formic acid (B). The flow rate was 0.40 ml/min. The elution conditions were the following linear gradient for metabolite identify in HLMs: 0–1 min: 95% A, 1–2 min: 80% A, 2–5 min: 80% A, 5–8 min: 70% A, 8–12 min: 30% A, 12–15 min: 5% A, 15–16 min: 95% A, and 16–18 min: 95% A. The elution conditions were the following for metabolite identify in dog plasma: 0–1 min: 95% A, 1–30 min: 70% A, 30–32 min: 30% A, 32–33 min: 5% A, 33–35 min: 95% A, and 35–40 min: 95% A.
HRMS were operated at positive ion mode using a heating electrospray ionization source (HESI). The optimized operating parameters were set as follows: sheath gas (nitrogen) flow rate of 35 psi, aux gas (nitrogen) flow rate of 10 psi, HESI and capillary temperature of 350°C, and spray voltage of 3.5 kV. The metabolites were detected by full MS/dd-MS^2 analysis from m/z 100 to m/z 1,000. The resolution of the first-class scan and second-class scan was 70 000 and 17 500, respectively. The collision energy for collision induced dissociation (NCE) was set to 20, 40 and 60 eV. The loop count was set to five and the dynamic exclusion duration to 10 s. […] Thermo Compound Discover software was used to identify expected and unknown metabolites, and we finally proposed (+)-13e metabolic pathways based on the deduced metabolites and relevant drug biotransformation knowledge.

CYP3A4 = tested on: T3, CYP3A4; experiment: P450 phenotyping, chemical inhibitors in HLMs, CYP3A4; assay type: in vitro ADME, human; settings: CYP3A4 probe substrate, 2 µM, specific inhibitor
T3 construct: tissue Corning Co., Ltd (Shanghai, China); host or cells: human liver microsomes
Procedure: as §1, §2

rhCYP CYP3A4 = tested on: T4, rhCYP CYP3A4; experiment: P450 phenotyping, rhCYP isozymes, CYP3A4; assay type: in vitro ADME, human; settings: rhCYP3A4 probe substrate, 0.4 µM
T4 construct: purchased Corning Co., Ltd (Shanghai, China)
Description: as §1, §3

rat VMAT2 = target: T5, rat VMAT2 (Rattus norvegicus, UniProt Q01827); experiment: [3H]DA uptake assay in rat striatal synaptosomes; assay type: biochemical; settings: [3H]DA uptake, rat striatal synaptosomes
T5 construct: in vitro [^3H]DA uptake assay in rat striatal synaptosomes; from tissue; host or cells: rat striatal synaptosomes / vesicular suspension
Procedure: [^3H]DA (dihydroxyphenylethyethylamine, 3,4-[ring-2,5,6-^3H]; specific activity, 28.0 Ci/mmol) was purchased from Perkin Elmer. […] After drying, the filter plate was sealed with unifilter-96 back sealing tape and added 50 μl of microscint-20 (Perkin Elmer), then sealed the top of the filter plate with TopSeal-A. The radioactivity was measured by a TopCount scintillation counter. GraphPad Prism 5.0 was used to analyze data.

[10] = tested on: locomotor activity of rats; experiment: Dose-dependent effects on locomotor activity in rats; assay type: in vivo, rat; settings: SD rats, single oral gavage 5.2 μmol/kg, 0.5-[…] after dosing
Procedure: Before administration, animals were transported to the test room and allowed to acclimate for at least 1 h. Immediately after drug administration, rats were placed into activity chambers to assess their basal locomotor activity using the TopScan monitoring system. The total travel distance was recorded from 0.5 to 1.5 h after administration in intervals of 10 min.

[11] = PK in dogs after single oral or intravenous dose; assay type: in vivo, dog; settings: dog
Procedure: as §7
The system consisted of an Exion UHPLC system (Shimadzu, Japan) and a Triple Quad 4500 mass spectrometer (AB Sciex, United States) with an electrospray ionization source. Multiple reaction monitoring in the positive ionization mode was applied to measure analytes. Chromatographic separation was performed on a Acquity BEH C18 column (50 × 2.1 mm i. d., 1.7 μm, Waters, United States). The mobile phase was composed of 0.1% FA in water (A) and 0.1% FA in acetonitrile (B), and the flow rate was 0.4 ml/min. The elution conditions were the following linear gradient: 0–0.4 min: 90% A, 0.4–0.6 min: 60% A, 0.6–1.2 min: 10% A, 1.2–2.2 min: 10% A, 2.2–2.3 min: 90% A, 2.3–3.0 min: 90% A. The optimized parameters were as follows: the spray voltage 5.5 kV, source temperature 550 °C, pressure of source gas 1 and gas 2: 55psi, pressure of curtain gas: 30psi, and the DP, EP and CE voltage was 30,6 and 40 eV, respectively.

[12] = no peak in UV, abundance by mass spectrometry

T5 sequence (Q01827 whole entry): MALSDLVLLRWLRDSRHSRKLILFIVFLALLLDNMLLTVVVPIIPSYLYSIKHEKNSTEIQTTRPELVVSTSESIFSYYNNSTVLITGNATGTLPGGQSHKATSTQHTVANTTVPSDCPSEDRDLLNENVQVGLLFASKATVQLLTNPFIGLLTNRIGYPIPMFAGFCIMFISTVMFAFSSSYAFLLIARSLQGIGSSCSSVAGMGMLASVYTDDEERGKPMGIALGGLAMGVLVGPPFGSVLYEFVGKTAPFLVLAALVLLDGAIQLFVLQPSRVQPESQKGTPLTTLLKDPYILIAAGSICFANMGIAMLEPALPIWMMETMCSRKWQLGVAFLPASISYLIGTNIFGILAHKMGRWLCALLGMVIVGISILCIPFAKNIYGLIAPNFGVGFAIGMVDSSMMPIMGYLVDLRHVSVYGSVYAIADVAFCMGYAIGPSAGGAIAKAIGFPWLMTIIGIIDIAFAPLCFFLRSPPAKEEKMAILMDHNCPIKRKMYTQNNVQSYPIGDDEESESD

COc1cc2c(cc1OCC(F)(F)F)CCN1CC(CC(C)C)C(O)CC21 (racemic) [13e, 3-isobutyl-10-methoxy-9-(2,2,2-trifluoroethoxy)-1,3,4,6,7,11b-hexahydro-2H-pyrido [2,1-a]isoquinolin-2-ol]
concentration in the brain higher than that of HTBZ [1]: 2 fold | IC50 (VMAT2 [2]): 0.00513 µM

COc1ccc2c(c1)[C@]13CCCC[C@@H]1[C@H](C2)N(C)CC3 [Dextromethorphan]
%Inhibation in HLM (CYP2D6): 90.7% | CL int in rhCYP (rhCYP CYP2D6): 13.1 µL/min/pmol

COc1cc2c(cc1OC)[C@H]1C[C@@H](O)[C@H](CC(C)C)CN1CC2 [HTBZ, (+)-α-dihydrotetrabenazine]
VMAT2 affinity (VMAT2 [3]): High | Plasma Leval (DTBZ) [4]: 1.7% | Plasma Leval (TBZ) [4]: 1.8%

CC(C)CC1CN2CCc3cc(OCC(F)(F)F)c(O)cc3C2CC1O (stereo not shown) [M373]
relative abundance in liver microsomes from humans, dogs, and rats [5]: less than 3.2% | Relative abundance Dog (*detected by mass spectrometry) [6, 12]: 0.46^* % | Relative abundance Human (*detected by mass spectrometry) [7, 12]: 0.69^* % | Relative abundance, UV area % Rat [8]: 2.6%

COc1cc2c(cc1OCC(F)(F)F)CCN1CC(CC(C)(C)O)C(O)CC21 (stereo not shown) [M403-2]
Relative abundance, UV area % Dog ([6]; NADPH, 60 min, UV area): 10.01% | Relative abundance, UV area % Human ([7]; NADPH, 60 min, UV area): 12.11% | Relative abundance, UV area % Rat [8]: 8.78% | Relative abundance UV area % in dog plasma [9]: 9.69%

CC(C)C[C@@H]1CN2CCc3cc(OCC(F)(F)F)c(OC4OC(C(=O)O)C(O)C(O)C4O)cc3[C@H]2C[C@H]1O (stereo partly shown) [M549]
Relative abundance UV area % in dog plasma [9]: 7.47%

COc1cc2c(cc1OCC(F)(F)F)CCN1CC(CC(C)C)C(OC3OC(C(=O)O)C(O)C(O)C3O)CC21 (stereo not shown) [M563]
Relative abundance UV area % in dog plasma [9]: 9.92%

CC(C)(O)C[C@@H]1CN2CCc3cc(OCC(F)(F)F)c(OC4OC(C(=O)O)C(O)C(O)C4O)cc3[C@H]2C[C@H]1O (stereo partly shown) [M565]
Relative abundance UV area % in dog plasma [9]: 10.2%

COc1cc2c(cc1OCC(F)(F)F)CCN1C[C@@H](CC(C)(C)OC3OC(C(=O)O)C(O)C(O)C3O)[C@H](O)C[C@H]21 (stereo partly shown) [M579-1]
Relative abundance UV area % in dog plasma [9]: 3.43%

Cc1ncc2n1-c1ccc(Cl)cc1C(c1ccccc1F)=NC2 [Midazolam]
%Inhibation in HLM (CYP3A4): 84.7% | CL int in rhCYP (rhCYP CYP3A4): 9.13 µL/min/pmol

COc1cc2c(cc1OC)C1CC(=O)C(CC(C)C)CN1CC2 (stereo not shown) [TBZ, tetrabenazine, reference compound]
IC90 (rat VMAT2): 0.0969 µM

COc1cc2c(cc1OC)[C@H]1C[C@@H](OC(=O)[C@@H](N)C(C)C)[C@H](CC(C)C)CN1CC2 [VBZ, Valbenazine ditosylate, reference compound]
reduction rate (RR) of locomotion [10]: 97.9% | V, V/F ([11]; single intravenous dose 0.6 μmol/kg): 2.8 ± 0.5 L/kg | clearance ([11]; single intravenous dose 0.6 μmol/kg, read-out: Cl, Cl/F (converted)): 0.36 L/h/kg | V, V/F ([11]; single oral dose 3 μmol/kg): 3.5 ± 0.8 L/kg | bioavailability ([11]; male, beagle, plasma, dogs, oral 3 μmol/kg vs intravenous 0.6 μmol/kg, read-out: absolute oral bioavailability): 74.1% | CL/F ([11]; male, beagle, plasma, 3 umol/kg, single oral dose 3 μmol/kg): 0.48 L/h/kg

COc1cc2c(cc1OC)[C@H]1C[C@H](O)[C@H](CC(C)C)CN1CC2 [[+]-β-HTBZ]
VMAT2 affinity (VMAT2 [3]): High | Plasma Leval (DTBZ) [4]: 43.8% | Plasma Leval (TBZ) [4]: 37.2%

COc1cc2c(cc1OC)[C@@H]1C[C@H](O)[C@@H](CC(C)C)CN1CC2 [[-]-α-HTBZ]
VMAT2 affinity (VMAT2 [3]): Low | Plasma Leval (DTBZ) [4]: 48.3% | Plasma Leval (TBZ) [4]: 55.6%

COc1cc2c(cc1OC)[C@@H]1C[C@@H](O)[C@@H](CC(C)C)CN1CC2 [[-]-β-HTBZ]
VMAT2 affinity (VMAT2 [3]): Low | Plasma Leval (DTBZ) [4]: 6.2% | Plasma Leval (TBZ) [4]: 5.4%
